The text below walks through data of ChEMBL document CHEMBL1201862, “PubChem BioAssay data set” (2004).

Test systems include BT-549; SNB-19; SNB-75; HCT-116; SF-539; HCT-15; HT-29; UACC-257; DU-145; CAKI-1; SK-MEL-5; SF-295; NCI-H460; MDA-N; U-251; UACC-62; 786-0; LOX IMVI; HCC 2998; CCRF-CEM.
What all share (test): inhibition of tumour cell growth, NCI panel, 48 h

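All cell lines were grown in 96-well plates and treated with compound for 48 hours. GI50 is the concentration that inhibits growth by half.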 The source made the active and inactive calls. Rule as the data show it: active = GI50 up to about 1.1 µM and inactive = higher.

As for `N#Cc1c(NC(=O)CCC(=O)O)ccc2ccccc12`, the GI50 was > 100 µM (inactive) in the assay with BT-549; > 100 µM (inactive) in the assay on SNB-19; 64.1 µM (inactive) in the assay on SNB-75; > 100 µM (inactive) in the assay on HCT-116; > 100 µM (inactive) in the assay on SF-539; over 100 µM in the assay on HCT-15. For the same compound, the GI50 with HT-29, with UACC-257, in the assay with DU-145, in the assay on CAKI-1, in the assay with SK-MEL-5 and in the assay with SF-295 was > 100 µM (inactive) each time. The GI50 in the assay on NCI-H460, in the assay on MDA-N, in the assay with U-251, in the assay with UACC-62 and with 786-0 was > 100 µM (inactive) in each case.
As for `CN1CCc2nc(N)nc(-c3nc(N)nc4c3CN(C)CC4)c2C1`, the GI50 with BT-549 was > 100 µM (inactive); with SNB-19, > 100 µM (inactive); in the assay with HCT-116, > 100 µM (inactive); in the assay with SF-539, > 100 µM (inactive); in the assay on HCT-15 it was over 100 µM; in the assay on HT-29, > 100 µM (inactive). Also, the GI50 with UACC-257, in the assay with LOX IMVI, with DU-145, in the assay on CAKI-1, in the assay with SK-MEL-5 and in the assay with SF-295 was > 100 µM (inactive) each time. For the same compound, the GI50 in the assay with NCI-H460, in the assay with MDA-N, in the assay with U-251, with UACC-62 and in the assay on 786-0 was > 100 µM (inactive) in each case.
Turning to `O=C(O)c1ccccc1SCc1cccc2c(=O)c3ccc(Cl)cc3oc12`, the GI50 was > 50 µM (inactive) in the assay with HCC 2998; 48.8 µM (inactive) with BT-549; 15.6 µM (inactive) with SNB-75; 36.1 µM (inactive) in the assay with HCT-116; > 50 µM (inactive) in the assay with CCRF-CEM; 19.5 µM (inactive) in the assay on SF-539. Moreover, the GI50 in the assay with HCT-15 is over 50 µM; in the assay on HT-29 it was > 50 µM (inactive); in the assay on UACC-257 it was > 50 µM (inactive); in the assay on LOX IMVI, > 50 µM (inactive); in the assay with CAKI-1, > 50 µM (inactive); with SK-MEL-5, > 50 µM (inactive). Also, the GI50 was 20.2 µM (inactive) in the assay with SF-295; > 50 µM (inactive) in the assay on MDA-N; 17.5 µM (inactive) in the assay on U-251; 21.4 µM (inactive) in the assay with UACC-62; 25.3 µM (inactive) with 786-0.
For the compound `CCOC(=O)C1(C)CCCc2sc(N)c(C#N)c21` (stereo not drawn), the GI50 was > 100 µM (inactive) in the assay on HCC 2998; > 100 µM (inactive) with BT-549; > 100 µM (inactive) with SNB-19; 69 µM (inactive) with SNB-75; > 100 µM (inactive) in the assay on HCT-116; over 100 µM with HCT-15. Moreover, the GI50 in the assay with HT-29, in the assay with UACC-257, in the assay on SK-MEL-5, with NCI-H460, with MDA-N and with U-251 was > 100 µM (inactive) each time. For the same compound, the GI50 in the assay on UACC-62 and in the assay on 786-0 was > 100 µM (inactive) in each case.
`O=C1C=CC2(C=C1)O[C@H](CCc1ccccc1)[C@@H](CCc1ccccc1)O2`: the GI50 in the assay with BT-549 was > 100 µM (inactive); with SNB-19, > 100 µM (inactive); in the assay with SNB-75, > 100 µM (inactive); with HCT-116, 99.3 µM (inactive); in the assay on CCRF-CEM, > 100 µM (inactive); in the assay on SF-539, > 100 µM (inactive). Also, the GI50 in the assay with HCT-15 was over 100 µM; in the assay on HT-29 it was > 100 µM (inactive); in the assay with UACC-257, > 100 µM (inactive); in the assay with LOX IMVI, 12.3 µM (inactive); in the assay with DU-145, > 100 µM (inactive); in the assay on CAKI-1, > 100 µM (inactive). Moreover, the GI50 with SK-MEL-5 is > 100 µM (inactive); in the assay on SF-295, > 100 µM (inactive); in the assay on NCI-H460, > 100 µM (inactive); in the assay on MDA-N, > 100 µM (inactive); with U-251 it was 20.2 µM (inactive); in the assay on UACC-62 it was > 100 µM (inactive). In addition, the GI50 in the assay on 786-0 was > 100 µM (inactive).
On to `Cn1c2cn[nH]c(=O)c2c2ccc3ccccc3c21`, for which the GI50 in the assay with BT-549 is 42.9 µM (inactive); with SNB-19, 26.5 µM (inactive); with SNB-75 it was 16.1 µM (inactive); in the assay with HCT-116, 29 µM (inactive); in the assay on CCRF-CEM, 59.2 µM (inactive); with SF-539, 48.4 µM (inactive). For the same compound, the GI50 is 23.9 µM with HCT-15; 37.3 µM (inactive) with HT-29; > 100 µM (inactive) in the assay on UACC-257; 21.9 µM (inactive) in the assay with LOX IMVI; 59.3 µM (inactive) with DU-145; 42.4 µM (inactive) in the assay on CAKI-1. Moreover, the GI50 in the assay with SK-MEL-5 was 31.5 µM (inactive); in the assay on SF-295, 18.9 µM (inactive); in the assay on NCI-H460, 20 µM (inactive); in the assay on MDA-N, > 100 µM (inactive); in the assay with U-251, 19.9 µM (inactive); in the assay with UACC-62 it was 22.4 µM (inactive). Also, in the assay with 786-0, the GI50 was 7.62 µM (inactive).
Turning to `O=C(ON=c1c2ccccc2ccc2ccccc12)c1ccccc1`, the GI50 with HCC 2998 is 34 µM (inactive); in the assay on BT-549, 31.6 µM (inactive); in the assay on SNB-19, 26.1 µM (inactive); in the assay on SNB-75, 26.5 µM (inactive); with HCT-116 it was 13.9 µM (inactive); in the assay on CCRF-CEM it was 18.8 µM (inactive). The GI50 with SF-539 was 15.5 µM (inactive); with HCT-15, 29.7 µM; in the assay on HT-29 it was 28.2 µM (inactive); in the assay on UACC-257, 27.6 µM (inactive); with LOX IMVI it was 18.4 µM (inactive); with DU-145, 42.2 µM (inactive). Besides, the GI50 with CAKI-1 is 24.4 µM (inactive); with SK-MEL-5 it was 16.2 µM (inactive); with SF-295, 35.7 µM (inactive); in the assay with NCI-H460, 43.2 µM (inactive); with U-251, 19.5 µM (inactive); with UACC-62 it was 16.2 µM (inactive). Besides, the GI50 in the assay on 786-0 is 23.6 µM (inactive).
In the case of `CC(=O)OC12c3ccccc3C(c3ccccc31)C1C(=O)N(c3ccccn3)C(=O)C12` (stereo not drawn), the GI50 with HCC 2998 was 72.6 µM (inactive); in the assay on BT-549 it was 38.8 µM (inactive); with SNB-19, 14.7 µM (inactive); with SNB-75 it was 23.8 µM (inactive); in the assay with HCT-116, 54.7 µM (inactive); in the assay with CCRF-CEM, 57.1 µM (inactive). Also, the GI50 is > 100 µM (inactive) in the assay with SF-539; 69.3 µM in the assay with HCT-15; 62.4 µM (inactive) in the assay with HT-29; 31.3 µM (inactive) in the assay with UACC-257; > 100 µM (inactive) with LOX IMVI; > 100 µM (inactive) in the assay on DU-145. Also, the GI50 in the assay on CAKI-1 is > 100 µM (inactive); in the assay with SK-MEL-5 it was 27.9 µM (inactive); with SF-295, 58.2 µM (inactive); in the assay with U-251, > 100 µM (inactive); with UACC-62, 91.6 µM (inactive); in the assay with 786-0, > 100 µM (inactive).
For `CC1CC/C(=C\c2ccc(N(C)C)cc2)C(=O)/C1=C/c1ccc(N(C)C)cc1` (stereo not drawn), the GI50 with HCC 2998, in the assay on BT-549, in the assay with SNB-75, in the assay with HCT-116, in the assay on CCRF-CEM and in the assay on SF-539 was > 100 µM (inactive) in each case. In addition, the GI50 in the assay on HCT-15 is over 100 µM; in the assay on HT-29 it was > 100 µM (inactive); in the assay on UACC-257, > 100 µM (inactive); in the assay on LOX IMVI, > 100 µM (inactive); in the assay with CAKI-1 it was > 100 µM (inactive); in the assay with SK-MEL-5, > 100 µM (inactive). Moreover, the GI50 in the assay on SF-295, with MDA-N, with U-251, in the assay with UACC-62 and in the assay on 786-0 was > 100 µM (inactive) throughout.
Turning to `[O-][n+]1c2cccc(O)c2[n+]([O-])c2cccc(O)c21`, the GI50 in the assay on BT-549 was 46 µM (inactive); in the assay with SNB-19, 92 µM (inactive); with SNB-75 it was > 100 µM (inactive); in the assay on HCT-116, 21.4 µM (inactive); in the assay with CCRF-CEM, 5.56 µM (inactive); in the assay with SF-539, 32.7 µM (inactive). Also, the GI50 in the assay with HCT-15 was 46.6 µM; in the assay on HT-29, > 100 µM (inactive); in the assay with UACC-257, 37.9 µM (inactive); in the assay on LOX IMVI, 56.8 µM (inactive); in the assay with DU-145 it was > 100 µM (inactive); in the assay with CAKI-1, 25.1 µM (inactive). The GI50 is 53.5 µM (inactive) with SK-MEL-5; 57.9 µM (inactive) in the assay with SF-295; 30.1 µM (inactive) in the assay with NCI-H460; > 100 µM (inactive) with MDA-N; 43.3 µM (inactive) with U-251; 30.2 µM (inactive) in the assay with 786-0.
`CC(C)(C)C(=O)OC(N)/C=C/c1ccccc1` (stereo not drawn): the GI50 with HCC 2998, in the assay with BT-549, with SNB-75, in the assay with HCT-116, with CCRF-CEM and with SF-539 was > 100 µM (inactive) throughout. Besides, the GI50 was over 100 µM in the assay on HCT-15; > 100 µM (inactive) with HT-29; > 100 µM (inactive) in the assay with UACC-257; > 100 µM (inactive) in the assay on CAKI-1; > 100 µM (inactive) in the assay on SK-MEL-5; > 100 µM (inactive) in the assay on SF-295. Besides, the GI50 with NCI-H460, in the assay on MDA-N, in the assay with U-251, with UACC-62 and in the assay with 786-0 was > 100 µM (inactive) in each case.
As to `Cc1nn(-c2ccccc2)c2nc(S)cnc12`, the GI50 in the assay with BT-549, in the assay with SNB-19, in the assay on HCT-116, with CCRF-CEM, in the assay on SF-539 and in the assay with HT-29 was > 100 µM (inactive) each time. Besides, the GI50 with UACC-257, with LOX IMVI, in the assay on DU-145, in the assay with CAKI-1, in the assay on SF-295 and with NCI-H460 was > 100 µM (inactive) each time. The GI50 with MDA-N, with U-251, with UACC-62 and in the assay on 786-0 was > 100 µM (inactive) each time.
